# Source: patent US8916586B2, “Anti-angiogenic compound” (University College Dublin—National University of Ireland, …, priority 2011, dated 2014)
# “Also recorded” adds a separate entry of the source.
# Columns and labels:
# [1] = test system: trunk intersegmental vessels of zebrafish; test: Quantification of intersegmental vessel number in zebrafish larvae; assay type: in vivo; details: for inhibition of developmental angiogenesis of the trunk intersegmental vessels / inhibition at 10 µM: 10 μM; for inhibition of developmental angiogenesis of the trunk intersegmental vessels: added at 6 hours post-fertilisation; for dose-dependence of inhibition of intersegmental vessel development: 0.1-10 μM; for dose-dependence of inhibition of intersegmental vessel development / inhibition at 10 µM: added at 6 hours post fertilisation; for inhibition at 10 µM: Danio rerio, read-out: inhibition of intersegmental vessel formation
# Description: […] Larvae were manually dechorionated, euthanised, and fixed in 4% PFA at 4° C. overnight before analysis. The larvae were then washed with PBS and transferred to depression slides for observation under epi-fluorescence in an Olympus SZX16 fluorescent microscope. The number of intersegmental vessels was counted and the average number was graphed for each drug. […] At the highest concentration (10 μM), 11B was seen to inhibit intersegmental vessel formation by 44%. 11F inhibited intersegmental vessel formation by 16% at the highest concentration (10 μM).
# zebrafish larvae [2] = test: Gross morphology / toxicity and eye morphology of treated zebrafish larvae; assay type: in vivo; details: for toxic effects / gross morphology of larvae: treated 1-5 dpf
# Description: Prior to analysis of the intraocular vasculature, the control and treated larvae were observed under an Olympus SZX16 stereo zoom microscope and screened for general malformations. Overall patterning of the vasculature (fin, gut and intersegmental vessels) was examined for abnormalities (FIGS. 7B and 9A).
# (§1) Visual function was assessed using the optokinetic response, a behavioural assay that tests the ability of larval zebrafish to track moving stripes (Brockerhoff 2006). […] For these experiments the compounds were screened in zebrafish larvae as described above except that the drug (compound 11B) was added at either day 1, 2, 3 or 4, and all treated larvae were analysed at day 5.
# zebrafish larvae [3] = test: Visual function by optokinetic response (OKR) in zebrafish larvae; assay type: in vivo; details: treated from day 2-5 or day 3-5
# Description: as §1
# [4] = test system: dermal-derived normal human microvascular endothelial cells (HMVEC-d); test: HMVEC-d cell migration (CIM-plate 16, xCELLigence); assay type: cell-based; details: 100 nM (FIG. 13)
# Description: HMVEC-d were purchased from Clonetics, San Diego, Calif., USA. Cells were maintained in complete Endothelial Cell Medium (Clonetics® EGM®-2-MV BulletKit®) containing 500 ml of Endothelial Cell Basal Medium-2 and supplemented with hEGF, 0.5 ml; Hydrocortisone, 0.2 ml; GA-1000, 0.5 ml; FBS, 25 ml; VEGF, 0.5 ml; hFGF-B, 2.0 ml; R3-IGF-1, 0.5 ml; Ascorbic Acid, 0.5 ml in a 37° C. humidified atmosphere of 5% CO2/95% air. HMVEC-d were used for experiments between passages 4-8.
# Continuous monitoring of HMVEC-d cultures cell migration was recorded using a CIM-plate 16 (RTCA DP Analyser, xCELLigence System, Roche) with 5% serum serving as chemoattractant and following the manufacturer's protocol. Each well is composed of an upper chamber, a membrane with an interdigitated gold electrode on the underside of the microporous membrane (facing the lower chamber) and a lower chamber. Cells that have migrated to the lower chamber containing the chemoattractant attach to the gold electrodes and generate electrical impedance. Impedance readings are taken from an electronic sensor plate and reflect their attachment levels. […] The upper chamber was then clicked into position and 30 μl of serum-free media were added to cover the membrane surface. […] 5% CO2 humidified atmosphere and the Cell Index (CI) was recorded every 15 min. […]
# [5] = test system: mouse model of oxygen induced retinopathy (OIR); test: Mouse oxygen-induced retinopathy (OIR) model of ocular neovascularisation; assay type: in vivo; details: for avascular area of the retina in treated eyes: postnatal day 12-17, intravitreal
# Description: To assess the ability of compound 11B to inhibit ocular neovascularisation in mammalian eyes, 11B was tested in the mouse model of oxygen induced retinopathy (OIR). […] 11B was injected intravitreally into a mouse model of oxygen-induced retinopathy (OIR). The OIR model was generated by placing postnatal day 7 (P7) mouse pups into hyperoxia (75% oxygen) for 5 days and then removing them to normoxia (21%) on postnatal day 12 (P12). The hyperoxic (high oxygen) environment causes retinal blood vessels to regress between P7 and P12. The normoxic environment on P12 is a relatively hypoxic (low oxygen) environment for the mice and causes the growth of new blood vessels (angiogenesis). For all samples, eyes were enucleated, fixed, flat mounted and then stained with an isolectin antibody to visualise the blood vessels. Blood vessels were quantified and those treated with lead compounds compared to controls.
# [6] = test system: IL-6 secreted from explant cultures of human colorectal cancers; test: IL-6 secretion from human colorectal tumour explants (ELISA); assay type: cell-based; details: 72 hours
# Description: Human colorectal tumour samples were taken directly from the pathology laboratory after surgery once adequate material was taken for diagnostic testing. The tumour samples were washed and stored in DMSO/tumour conditioning media (TCM). The samples were snap-frozen in liquid nitrogen and stored at −80° C. until compound testing was performed. Prior to compound testing, the tumours were thawed and incubated in fresh TCM for 24 hours. […] The TCM solutions were collected and stored at −20° C. and the remaining tumour explants were snap-frozen in liquid nitrogen and stored at −80° C. The protein content of each tumour sample was determined using the BCA protein assay. ELISA was used to determine the levels of VEGF, IL-8, MCP-1, GRO-α, IL-1β and IL-6. The secretion data were normalised according to the tumour sample's protein content.
# [7] = test system: hyaloid vasculature in zebrafish; test: Zebrafish developmental angiogenesis assay: number of primary branches of hyaloid vasculature on dissected lens; assay type: in vivo
smiles,measurement,setting,value
Oc1ccccc1/C=C/c1ccc2ccccc2n1 [11B],inhibition of developmental angiogenesis of the trunk intersegmental vessels,[1],significant inhibition
same,dose-dependence of inhibition of intersegmental vessel development,[1],dose-dependent and statistically significant manner
same,inhibition at 10 µM,[1],44%
same,effect on existing (earlier formed) intersegmental vessels of the trunk,[1]; added from day 1-5,no effect; also recorded: intact
same,wholemount morphology of larvae,"zebrafish larvae [2]; 10 μM, treated from day 2-5 or day 3-5",normal
same,toxic effects / gross morphology of larvae,zebrafish larvae [2],do not induce toxic effects
same,"morphology of eyes in transverse sections (layering of the retina, size of retina/lens, presence of optic nerve)",zebrafish larvae [2]; treated larvae,normal
same,"visual function, optokinetic response (OKR)",zebrafish larvae [3],no significant effect; also recorded: not statistically different from controls
same,effect on HMVEC-d cell migration,[4],no significant effect; also recorded: neither 11B nor 11F had a significant effect; also recorded: neither 11B nor 11F had significant effects
same,avascular area of the retina in treated eyes,[5]; 0.5 μM,~33%
same,avascular area of the retina in treated eyes,[5]; 3 μM,~30%
same,increase in avascular retina relative to the avascular area in the P17 control,[5]; intraocular injections,~2.4 fold
same,inhibition of ocular neovascularisation in OIR model,[5]; intravitreal injection,inhibited angiogenesis; also recorded: can inhibit intraocular neovascularisation
same,level of IL-6 secreted by human tumour explants,"[6]; 1 μM and 10 μM tested, concentration not given at place",significantly reduced
same,level of IL-6 secreted by human tumour explants,[6]; 1 μM,significantly reduces
same,level of IL-6 secreted by human tumour explants,[6]; 10 μM,significantly reduces
same,number of primary branches of hyaloid vasculature,"[7]; 5 μM, treated day 2-5",significant reduction
same,number of primary branches of hyaloid vasculature,"[7]; 5 μM, treated day 3-5",no significant effect
same,number of primary branches of hyaloid vasculature,"[7]; 5 μM, treated day 4-5",no significant effect
same,number of primary branches of hyaloid vasculature,"[7]; 10 μM, treated day 2-5",significant reduction
same,number of primary branches of hyaloid vasculature,"[7]; 10 μM, treated day 3-5",significant reduction
same,number of primary branches of hyaloid vasculature,"[7]; 10 μM, treated day 4-5",no effect
same,time-dependence of inhibition of developmental angiogenesis in the eye,"[7]; drug added at day 1, 2, 3 or 4, analysed at day 5",time-dependent effect; also recorded: time-dependent manner
"COc1cc2c(C3CCCN3C)cnc(Cc3ccc4c(c3)OCO4)c2cc1OC (stereo not shown) [11F, 1-(1,3-benzodioxol-5-ylmethyl)-6,7-dimethoxy-4-(1-methyl-2-pyrrolidinyl)isoquinoline]",inhibition of developmental angiogenesis of the trunk intersegmental vessels,[1],modest but significant inhibition
same,dose-dependence of inhibition of intersegmental vessel development,[1],dose-dependent and statistically significant manner
same,inhibition at 10 µM,[1],16%
same,toxic effects / gross morphology of larvae,zebrafish larvae [2],do not induce toxic effects
same,effect on HMVEC-d cell migration,[4],no significant effect; also recorded: neither 11B nor 11F had a significant effect; also recorded: neither 11B nor 11F had significant effects
